The structures appear in SMILES notation.

We go through six compounds from the supplement of paper PMC10307832.

The first assay deals with NCI-H1437. Put plainly: relative viability (nuclei count vs DMSO), 5 days (fraction); higher = more cells survive. The note with it: first compound 0.8 µM. The gist of the method: (§1)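 Dosing by pin tool came one day after lung cancer cell lines were seeded in 1536-well plates, using either one drug or a fixed anchor-drug dose plus five library-drug doses (not always all listed) in √10 steps. After 5 days, nuclei were counted on 4× images. Relative viability is treated-well nuclei count divided by vehicle-well nuclei count, and values are medians of duplicate plates.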
Compound `Nc1cccc2c1CN(C1CCC(=O)NC1=O)C2=O` (configuration not stated) [Lenalidomide] + CC(=O)c1c(C)c2cnc(Nc3ccc(N4CCNCC4)cn3)nc2n(C2CCCC2)c1=O [Palbociclib] (partner 0.5 µM) yielded a relative viability of 0.246.

As to `Nc1cccc2c1CN(C1CCC(=O)NC1=O)C2=O` (configuration not stated) [Lenalidomide] + O=C(CCCCCCC(=O)Nc1ccccc1)NO [Vorinostat] (partner 1 µM), the relative viability is 0.85.

For `Nc1cccc2c1CN(C1CCC(=O)NC1=O)C2=O` (configuration not stated) [Lenalidomide] + COc1cccc2cc(-c3nc([C@H]4CC[C@H](C(=O)O)CC4)n4ncnc(N)c34)[nH]c12 [OSI-027] (partner 0.5 µM), the relative viability was found to be 1.11.

The assay is the same for the next values; noted with them: first compound 2.53 µM.
Regarding `Nc1cccc2c1CN(C1CCC(=O)NC1=O)C2=O` (configuration not stated) [Lenalidomide] + Nc1ncn([C@H]2C[C@H](O)[C@@H](CO)O2)c(=O)n1 [Decitabine] (partner 2 µM), the relative viability worked out at 0.59.

`Nc1cccc2c1CN(C1CCC(=O)NC1=O)C2=O` (configuration not stated) [Lenalidomide] + N=C(N)NC(=N)NCCc1ccccc1 [Phenformin] (partner 250 µM) showed a relative viability of 0.839.

As to `Nc1cccc2c1CN(C1CCC(=O)NC1=O)C2=O` (configuration not stated) [Lenalidomide] + Nc1nc2[nH]cc(CCc3ccc(C(=O)N[C@@H](CCC(=O)O)C(=O)O)cc3)c2c(=O)[nH]1 [Pemetrexed] (partner 0.2 µM), the relative viability was 0.327.

In turn, `Nc1cccc2c1CN(C1CCC(=O)NC1=O)C2=O` (configuration not stated) [Lenalidomide] + CC(=O)c1c(C)c2cnc(Nc3ccc(N4CCNCC4)cn3)nc2n(C2CCCC2)c1=O [Palbociclib] (partner 0.5 µM) came in with a relative viability of 0.359.

`Nc1cccc2c1CN(C1CCC(=O)NC1=O)C2=O` (configuration not stated) [Lenalidomide] + O=C(CCCCCCC(=O)Nc1ccccc1)NO [Vorinostat] (partner 1 µM) displayed a relative viability of 0.934.

`Nc1cccc2c1CN(C1CCC(=O)NC1=O)C2=O` (configuration not stated) [Lenalidomide] + COc1cccc2cc(-c3nc([C@H]4CC[C@H](C(=O)O)CC4)n4ncnc(N)c34)[nH]c12 [OSI-027] (partner 0.5 µM): the relative viability was found to be 0.993.

The same assay, now with this note: first compound 8 µM.
The compound `Nc1cccc2c1CN(C1CCC(=O)NC1=O)C2=O` (configuration not stated) [Lenalidomide] + Nc1ncn([C@H]2C[C@H](O)[C@@H](CO)O2)c(=O)n1 [Decitabine] (partner 2 µM) returned a relative viability of 0.648.

Consider `Nc1cccc2c1CN(C1CCC(=O)NC1=O)C2=O` (configuration not stated) [Lenalidomide] + N=C(N)NC(=N)NCCc1ccccc1 [Phenformin] (partner 250 µM), for which the relative viability came to 0.363.

For the compound `Nc1cccc2c1CN(C1CCC(=O)NC1=O)C2=O` (configuration not stated) [Lenalidomide] + Nc1nc2[nH]cc(CCc3ccc(C(=O)N[C@@H](CCC(=O)O)C(=O)O)cc3)c2c(=O)[nH]1 [Pemetrexed] (partner 0.2 µM), the relative viability was determined as 0.323.

As to `Nc1cccc2c1CN(C1CCC(=O)NC1=O)C2=O` (configuration not stated) [Lenalidomide] + CC(=O)c1c(C)c2cnc(Nc3ccc(N4CCNCC4)cn3)nc2n(C2CCCC2)c1=O [Palbociclib] (partner 0.5 µM), the relative viability amounted to 0.353.

With `Nc1cccc2c1CN(C1CCC(=O)NC1=O)C2=O` (configuration not stated) [Lenalidomide] + O=C(CCCCCCC(=O)Nc1ccccc1)NO [Vorinostat] (partner 1 µM), the relative viability stood at 0.843.

In turn, `Nc1cccc2c1CN(C1CCC(=O)NC1=O)C2=O` (configuration not stated) [Lenalidomide] + COc1cccc2cc(-c3nc([C@H]4CC[C@H](C(=O)O)CC4)n4ncnc(N)c34)[nH]c12 [OSI-027] (partner 0.5 µM) came in with a relative viability of 0.956.

The next assay deals with NCI-H1650. The description is as above. As to conditions: first compound 0.253 µM. The gist of the method:
as §1
As to `Nc1cccc2c1CN(C1CCC(=O)NC1=O)C2=O` (configuration not stated) [Lenalidomide] + Nc1ncn([C@H]2C[C@H](O)[C@@H](CO)O2)c(=O)n1 [Decitabine] (partner 2 µM), the relative viability amounted to 0.387.

`Nc1cccc2c1CN(C1CCC(=O)NC1=O)C2=O` (configuration not stated) [Lenalidomide] + Nc1nc2[nH]cc(CCc3ccc(C(=O)N[C@@H](CCC(=O)O)C(=O)O)cc3)c2c(=O)[nH]1 [Pemetrexed] (partner 0.2 µM) had a relative viability of 0.357.

`Nc1cccc2c1CN(C1CCC(=O)NC1=O)C2=O` (configuration not stated) [Lenalidomide] + CC(=O)c1c(C)c2cnc(Nc3ccc(N4CCNCC4)cn3)nc2n(C2CCCC2)c1=O [Palbociclib] (partner 0.5 µM) had a relative viability of 0.339.

`Nc1cccc2c1CN(C1CCC(=O)NC1=O)C2=O` (configuration not stated) [Lenalidomide] + O=C(CCCCCCC(=O)Nc1ccccc1)NO [Vorinostat] (partner 1 µM) registered a relative viability of 0.545.

The assay is the same for the next values; noted with them: first compound 0.8 µM.
Take `Nc1cccc2c1CN(C1CCC(=O)NC1=O)C2=O` (configuration not stated) [Lenalidomide] + Nc1ncn([C@H]2C[C@H](O)[C@@H](CO)O2)c(=O)n1 [Decitabine] (partner 2 µM): the relative viability was found to be 0.424.

Regarding `Nc1cccc2c1CN(C1CCC(=O)NC1=O)C2=O` (configuration not stated) [Lenalidomide] + N=C(N)NC(=N)NCCc1ccccc1 [Phenformin] (partner 250 µM), the relative viability worked out at 0.376.

Consider `Nc1cccc2c1CN(C1CCC(=O)NC1=O)C2=O` (configuration not stated) [Lenalidomide] + Nc1nc2[nH]cc(CCc3ccc(C(=O)N[C@@H](CCC(=O)O)C(=O)O)cc3)c2c(=O)[nH]1 [Pemetrexed] (partner 0.2 µM), for which the relative viability stood at 0.357.

`Nc1cccc2c1CN(C1CCC(=O)NC1=O)C2=O` (configuration not stated) [Lenalidomide] + CC(=O)c1c(C)c2cnc(Nc3ccc(N4CCNCC4)cn3)nc2n(C2CCCC2)c1=O [Palbociclib] (partner 0.5 µM) gave a relative viability of 0.279.

In turn, `Nc1cccc2c1CN(C1CCC(=O)NC1=O)C2=O` (configuration not stated) [Lenalidomide] + O=C(CCCCCCC(=O)Nc1ccccc1)NO [Vorinostat] (partner 1 µM) displayed a relative viability of 0.527.

In turn, `Nc1cccc2c1CN(C1CCC(=O)NC1=O)C2=O` (configuration not stated) [Lenalidomide] + COc1cccc2cc(-c3nc([C@H]4CC[C@H](C(=O)O)CC4)n4ncnc(N)c34)[nH]c12 [OSI-027] (partner 0.5 µM) gave a relative viability of 0.546.

Staying with this assay, now noted: first compound 2.53 µM.
Compound `Nc1cccc2c1CN(C1CCC(=O)NC1=O)C2=O` (configuration not stated) [Lenalidomide] + Nc1ncn([C@H]2C[C@H](O)[C@@H](CO)O2)c(=O)n1 [Decitabine] (partner 2 µM) yielded a relative viability of 0.419.

Turning to `Nc1cccc2c1CN(C1CCC(=O)NC1=O)C2=O` (configuration not stated) [Lenalidomide] + N=C(N)NC(=N)NCCc1ccccc1 [Phenformin] (partner 250 µM), the relative viability came out at 0.554.

Consider `Nc1cccc2c1CN(C1CCC(=O)NC1=O)C2=O` (configuration not stated) [Lenalidomide] + Nc1nc2[nH]cc(CCc3ccc(C(=O)N[C@@H](CCC(=O)O)C(=O)O)cc3)c2c(=O)[nH]1 [Pemetrexed] (partner 0.2 µM), for which the relative viability came to 0.366.

Take `Nc1cccc2c1CN(C1CCC(=O)NC1=O)C2=O` (configuration not stated) [Lenalidomide] + CC(=O)c1c(C)c2cnc(Nc3ccc(N4CCNCC4)cn3)nc2n(C2CCCC2)c1=O [Palbociclib] (partner 0.5 µM): the relative viability came out at 0.343.

Regarding `Nc1cccc2c1CN(C1CCC(=O)NC1=O)C2=O` (configuration not stated) [Lenalidomide] + O=C(CCCCCCC(=O)Nc1ccccc1)NO [Vorinostat] (partner 1 µM), the relative viability amounted to 0.543.

In turn, `Nc1cccc2c1CN(C1CCC(=O)NC1=O)C2=O` (configuration not stated) [Lenalidomide] + COc1cccc2cc(-c3nc([C@H]4CC[C@H](C(=O)O)CC4)n4ncnc(N)c34)[nH]c12 [OSI-027] (partner 0.5 µM) came in with a relative viability of 0.722.

The same assay, now with this note: first compound 8 µM.
Regarding `Nc1cccc2c1CN(C1CCC(=O)NC1=O)C2=O` (configuration not stated) [Lenalidomide] + Nc1ncn([C@H]2C[C@H](O)[C@@H](CO)O2)c(=O)n1 [Decitabine] (partner 2 µM), the relative viability came to 0.479.
